Paper PMC12374583, “Targeting complement C3 with Tanshinone I decreases microglia-mediated synaptic engulfment to exert antidepressant effects” (Theranostics, 2025)

Experiments:
[1] = molecular target: T1, C3 (BV2 cell proteins) (Mus musculus, UniProt P01027); assay: DARTS (Pronase), MS and Western blot; assay type: biochemical; conditions: 200 µM Tan I, 1 h; Pronase 30 min
T1 construct: endogenous C3 in BV2 (mouse microglial line) protein extract; detected by Western blot, 130-250 kDa band identified by MS
T1 sequence (P01027 25-666): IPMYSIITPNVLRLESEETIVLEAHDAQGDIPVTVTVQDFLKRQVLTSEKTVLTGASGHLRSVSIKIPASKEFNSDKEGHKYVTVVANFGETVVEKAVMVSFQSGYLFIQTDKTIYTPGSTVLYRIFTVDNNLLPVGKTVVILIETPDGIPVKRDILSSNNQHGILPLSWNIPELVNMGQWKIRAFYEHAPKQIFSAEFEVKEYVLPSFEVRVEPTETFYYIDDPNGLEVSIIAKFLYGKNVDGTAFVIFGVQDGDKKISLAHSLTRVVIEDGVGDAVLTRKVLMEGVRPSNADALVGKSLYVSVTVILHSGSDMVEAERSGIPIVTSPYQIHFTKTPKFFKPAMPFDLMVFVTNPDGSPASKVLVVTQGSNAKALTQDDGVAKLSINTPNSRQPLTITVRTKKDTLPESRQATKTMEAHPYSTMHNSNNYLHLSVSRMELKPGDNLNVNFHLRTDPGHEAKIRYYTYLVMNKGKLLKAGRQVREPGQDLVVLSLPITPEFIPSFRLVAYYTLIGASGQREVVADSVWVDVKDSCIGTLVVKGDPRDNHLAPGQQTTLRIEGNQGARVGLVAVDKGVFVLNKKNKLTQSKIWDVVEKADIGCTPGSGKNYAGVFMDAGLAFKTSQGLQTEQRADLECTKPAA
T1 sequence (P01027 671-1663): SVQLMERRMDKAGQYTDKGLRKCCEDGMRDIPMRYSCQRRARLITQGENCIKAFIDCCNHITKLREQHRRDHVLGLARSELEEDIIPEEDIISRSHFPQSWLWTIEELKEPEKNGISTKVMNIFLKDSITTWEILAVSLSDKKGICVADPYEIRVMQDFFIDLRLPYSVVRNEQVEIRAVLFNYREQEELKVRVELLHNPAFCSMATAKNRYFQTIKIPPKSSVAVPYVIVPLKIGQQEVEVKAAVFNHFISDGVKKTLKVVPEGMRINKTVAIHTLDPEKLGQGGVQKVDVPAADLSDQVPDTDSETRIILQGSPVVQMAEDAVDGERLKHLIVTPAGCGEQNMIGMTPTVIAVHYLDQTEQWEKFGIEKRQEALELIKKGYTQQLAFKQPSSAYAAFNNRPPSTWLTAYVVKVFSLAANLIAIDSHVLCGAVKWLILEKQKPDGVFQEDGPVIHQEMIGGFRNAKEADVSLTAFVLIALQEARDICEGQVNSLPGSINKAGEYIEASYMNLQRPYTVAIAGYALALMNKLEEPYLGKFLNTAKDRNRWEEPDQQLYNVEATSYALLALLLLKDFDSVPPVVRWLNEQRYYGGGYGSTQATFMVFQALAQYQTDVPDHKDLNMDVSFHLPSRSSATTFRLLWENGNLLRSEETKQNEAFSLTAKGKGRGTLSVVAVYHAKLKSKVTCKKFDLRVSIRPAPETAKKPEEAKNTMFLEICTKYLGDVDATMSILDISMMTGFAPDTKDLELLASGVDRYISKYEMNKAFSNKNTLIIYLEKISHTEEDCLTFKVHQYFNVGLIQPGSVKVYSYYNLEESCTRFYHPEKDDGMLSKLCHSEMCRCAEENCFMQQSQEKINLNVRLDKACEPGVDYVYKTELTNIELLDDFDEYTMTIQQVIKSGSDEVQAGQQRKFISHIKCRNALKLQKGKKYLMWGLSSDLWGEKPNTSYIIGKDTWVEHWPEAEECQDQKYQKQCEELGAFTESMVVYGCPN

[2] = molecular target: T2, C3 (complement C3), RED-NHS labelled; assay: microscale thermophoresis (Monolith NT.[…]); assay type: binding; conditions: 25 °C, PBS with 5% DMSO compound stocks, Tan I up to 25 µM
T2 construct: human purified C3 equally possible

[3] = molecular target: T1, C3 (BV2 cell proteins); assay: CETSA in BV2 protein extract, Western blot; assay type: biochemical; conditions: Tan I 1 h; 40-65 °C, 3 min

Structure (SMILES): Cc1coc2c1C(=O)C(=O)c1c-2ccc2c(C)cccc12 [Tan I]
- protection from proteolysis (DARTS) [1]: Tan I protected C3 from proteolytic degradation
- Kd [2]: 3.75 ± 3.31 µM
- thermal stabilisation (CETSA) [3]: Tan I significantly enhances the thermal stability of C3 in a certain temperature range
